The results in this text go back to patent US9642819B2, “Low dosage serotonin 5-HT2A receptor agonist to suppress inflammation” (BOARD OF SUPERVISORS OF LOUISIANA STATE UNIVERSITY AND …, priority 2008, dated 2017).

The test system of experiment [1] is VCAM-1 gene expression. Put plainly: TNF-α induced VCAM-1 gene expression in primary rat aortic smooth muscle cells. Type of experiment: cell-based. The note with it: RASM passage 4, media with FBS, 24 h pretreatment, TNF-α 10 ng/ml, read-out: IC50 for proinflammatory gene expression inhibition for VCAM-1. Here is the method:
RASM cells and treatment. Rat aortic smooth muscle (RASM) cells were isolated from adult 180 g male Sprague-Dawley rats and provided by the Cell and Molecular Core Facility in the Department of Pharmacology at LSUHSC-NO. Isolated RASM cells were grown in M-199 media containing 10% fetal bovine serum (Gibco), 100 units/mL penicillin, and 100 µg/mL streptomycin, and incubated at 37° C. in 5% CO2. Cells for all assays were used between passages 3 and 5. Prior to treatments, cells were grown in M-199 media with 10% fetal bovine serum (FBS) until 30-50% confluent. […]
RNA isolation and Quantitative Realtime-PCR. […]
The sequences of primers used are: 5-HT2AR (5-hydroxytryptamine 2A receptor): forward primer 5′-[…]-3′ (SEQ ID NO: 1), reverse primer, 5′[…]-3′ (SEQ ID NO: 2); ICAM-1 (intracellular adhesion molecule 1): forward primer, 5′-[…]-3′ (SEQ ID NO: 3, reverse primer, 5′-[…]-3′ (SEQ ID NO: 4); VCAM-1 (vascular adhesion molecule 1): forward primer, 5′-[…]-3′ (SEQ ID NO: 5), reverse primer, 5′-[…]-3′ (SEQ ID NO: 6); IL-6 (interleukin-6): forward primer, 5′-[…] […]-3′ (SEQ ID NO: 7), reverse primer, 5′-[…]-3′ (SEQ ID NO: 8); and cyclophillin B (control amplicon): forward primer, 5′-[…]-3′ (SEQ ID NO: 9), reverse primer, 5′-[…]-3′ (SEQ ID NO: 10). […] Quantitative determination of gene expression levels using a 2-step cycling protocol was performed on a MyIQ-5 Cycler (Bio-Rad, Hercules Calif.). […]

For experiment [2], the system named is Nitric Oxide Synthetase (NOS) activity. Put plainly: NOS activity: nitrite levels in culture medium of RASM cells after TNF-α. Type of experiment: cell-based, rat. As to conditions: 1 nM pretreatment for 24 hours, TNF-α 10 ng/ml 24 hours. Here is the method: Nitric Oxide Synthetase (NOS) Activity. NOS activity was determined by detection of nitrite levels in the cell culture medium following (R)-DOI/TNF-α treatments utilizing the Nitrate Detection kit from Assay Designs (Ann Arbor, Mich.) following the manufacturers protocols. Absorbances were detected at 539 nm on a […] SpectraMax M2 plate reader.
A key participant in inflammatory processes is NOS activity (Guzik et al., 2003). NOS activity can regulate NF-kB activation (Ckless et al., 2007), and cytokine pathway-activated NF-kB can transcriptionally regulate iNOS gene expression (Guo et al., 2007). To examine the effects of 5-HT2A receptor activation on this component of inflammatory mechanisms, primary RASM cells were used to examine the ability of 1 nM (R)-DOI to block TNF-α mediated increases in nitrite levels.
As an indicator of NOS activity, nitrite levels were measured in the cell culture media after treatments and are shown in FIG. 6 as % control. […] Pretreatment with 1 nM (R)-DOI for 24 hours blocked TNF-α mediated increases in nitrite accumulation (DOI+T).

Experiment [3] concerns ICAM-1 gene expression. Put plainly: TNF-α induced ICAM-1 gene expression in human neuroblastoma cells (SHSY5Y). The format is cell-based. On the procedure:
(§1) Experiments were conducted to analyze for the effect of 5-HT2A receptor activation on proinflammatory marker expression in other cell types. Human neuroblastoma cells (SHSY5Y) and rat glioma cells (C6) can be obtained from the American Type Culture Collection (Manassas, Va.), but were provided Purdue University. The cells were grown in DMEM+10% FBS. DMEM was made and provided by the Cell and Molecular Core of the Mentoring in Cardiovascular Biology COBRE center at LSUHSC-NO. FBS was purchased from Invitrogen (Carlsbad, Calif.). Primary rat aortic endothelial cells were prepared fresh and provided by the Cell and Molecular Core of the Mentoring in Cardiovascular Biology COBRE center at LSUHSC-NO. Cells were tested at passages 3-4. Cells were grown in endothelial cell growth medium (Cell Applications, Inc.). Primary rat bronchoaveolar macrophage cells were obtained by lung lavage from rats and used at day 3 or 4 post plating in DMEM+10% FBS.
(§2) All treatments with 5-HT2A receptor agonists occurred 1 hour prior to the addition of TNF-alpha (10 ng/ml) or LPS (100 ng or 1 mg) depending on the experiment. All RNA isolations, cDNA synthesis, QPCR gene expression assays examining ICAM1, VCAM1, and IL6, and data analysis were performed as described above in Example 1, except the primers were different for the human cell experiment. […]

For experiment [4], the system named is ICAM-1 gene expression. Kind of experiment: TNF-α induced ICAM-1 gene expression in rat C6 glioma cells. The note with it: 1 nM and 50 nM prior to TNF-α. Type of experiment: cell-based. On the procedure: as §1, §2
In experiment [5] the test system is VCAM-1 gene expression. Kind of experiment: TNF-α induced VCAM-1 gene expression in primary rat bronchoaveolar macrophage cells. The format is cell-based. On the procedure: as §1, §2

For orientation: IC50 means the concentration at which inhibition is half-maximal. Regarding `COc1cc(C[C@@H](C)N)c(OC)cc1I` [(R)-DOI, (R)-1-(2,5-dimethoxy-4-iodophenyl)-2-aminopropane], the IC50 is 0.012 nM in the experiment on VCAM-1 gene expression [1]; ~0.8 nM with ICAM-1 gene expression [3] (Homo sapiens, Neuroblastoma cell, 1 hour prior to TNF-α 10 ng/ml, read-out: IC50 for ICAM-1 gene expression inhibition in human neuroblastoma cells); ~0.02 nM in the experiment on VCAM-1 gene expression [5] (Rattus norvegicus, Macrophage, 1 hour prior to TNF-α 10 ng/ml, read-out: IC50 for VCAM-1 gene expression inhibition in rat bronchoaveolar macrophage cells). Moreover, the “effect on TNF-α mediated increases in nitrite accumulation” value in experiment [2] is “blocked”. Moreover, the “effect on ICAM-1 gene expression in human neuroblastoma cells” value in the experiment on ICAM-1 gene expression [3] was “blocked”. For the same compound, the “effect on ICAM-1 gene expression in rat glioma cells” value in the experiment on ICAM-1 gene expression [4] was “blocked”. In addition, in the experiment with VCAM-1 gene expression [5], the “effect on VCAM-1 gene expression in rat bronchoaveolar macrophage cells” value is “potently blocked”.
